Measured values published in ChEMBL document CHEMBL1201862, “PubChem BioAssay data set” (2004).
Activity calls are given as the source filed them.

Columns and labels:
[1] = molecular target: T1, Serine/threonine-protein phosphatase (Candida dubliniensis (strain CD36 / CBS 7987 / NCPF 3949 / NRRLY-17841) (Yeast), UniProt B9W6M3); assay: calcineurin pathway inhibitors in yeast reporter, dose response, S. cerevisiae, CDRE-lacZ, luminescence, secondary (AID 2388); format: functional, cell-based;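 further: yeast reporter cells carrying a calcineurin-responsive lacZ construct stimulated with calcium chloride; luminescent beta-galactosidase reporter signal in whole cells rather than isolated phosphatase activity; potency for inhibition where a drop in reporter signal means calcineurin blockade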
T1 sequence (B9W6M3 whole entry): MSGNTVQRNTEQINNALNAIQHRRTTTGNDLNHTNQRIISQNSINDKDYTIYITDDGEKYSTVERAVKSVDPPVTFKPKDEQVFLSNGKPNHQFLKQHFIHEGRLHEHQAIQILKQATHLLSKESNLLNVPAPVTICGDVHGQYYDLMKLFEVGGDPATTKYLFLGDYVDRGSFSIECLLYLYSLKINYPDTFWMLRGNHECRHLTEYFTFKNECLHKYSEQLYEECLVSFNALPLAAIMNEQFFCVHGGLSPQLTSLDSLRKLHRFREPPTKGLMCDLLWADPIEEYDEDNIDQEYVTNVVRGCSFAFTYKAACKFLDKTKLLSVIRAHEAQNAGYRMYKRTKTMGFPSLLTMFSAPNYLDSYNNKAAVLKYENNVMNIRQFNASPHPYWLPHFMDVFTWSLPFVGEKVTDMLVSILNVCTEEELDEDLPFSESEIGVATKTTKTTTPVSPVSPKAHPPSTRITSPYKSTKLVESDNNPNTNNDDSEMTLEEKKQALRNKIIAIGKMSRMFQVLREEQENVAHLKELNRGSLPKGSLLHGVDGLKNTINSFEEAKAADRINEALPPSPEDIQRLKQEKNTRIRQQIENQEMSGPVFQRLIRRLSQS

[2] = HepG2 cell cytotoxicity, dose response, cytotoxicity control for non-replicating M. tuberculosis project (AID 489018); format: functional; conditions: Mycobacterium tuberculosis
[3] = NIH-3T3 fibroblast cytotoxicity, dose response, cytotoxicity control, cell-based, fluorescence, Alamar Blue, secondary assay (AID 2327); format: functional;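 further: NIH-3T3 mouse fibroblasts cultured with fluconazole at 8 µg/mL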
[4] = THP-1 cell cytotoxicity, dose response, cytotoxicity control for non-replicating M. tuberculosis project (AID 489025); format: functional
[5] = microbe, parasite or virus in culture; format: functional; conditions: Mycobacterium tuberculosis
[6] = molecular target: ATP-dependent molecular chaperone HSP82 (Candida albicans (strain WO-1) (Yeast), UniProt C4YTQ8); assay: loss of DOC-induced GRE-beta-galactosidase reporter signal, dose response, Hsp90 inhibitor project, S. cerevisiae, luminescence (AID 2400); format: functional, cell-based;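 further: beta-galactosidase luminescence from glucocorticoid response element reporter as proxy for Hsp90 function; inhibitor potency where signal loss means Hsp90 inhibition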
Chain of ATP-dependent molecular chaperone HSP82 (C4YTQ8 whole entry): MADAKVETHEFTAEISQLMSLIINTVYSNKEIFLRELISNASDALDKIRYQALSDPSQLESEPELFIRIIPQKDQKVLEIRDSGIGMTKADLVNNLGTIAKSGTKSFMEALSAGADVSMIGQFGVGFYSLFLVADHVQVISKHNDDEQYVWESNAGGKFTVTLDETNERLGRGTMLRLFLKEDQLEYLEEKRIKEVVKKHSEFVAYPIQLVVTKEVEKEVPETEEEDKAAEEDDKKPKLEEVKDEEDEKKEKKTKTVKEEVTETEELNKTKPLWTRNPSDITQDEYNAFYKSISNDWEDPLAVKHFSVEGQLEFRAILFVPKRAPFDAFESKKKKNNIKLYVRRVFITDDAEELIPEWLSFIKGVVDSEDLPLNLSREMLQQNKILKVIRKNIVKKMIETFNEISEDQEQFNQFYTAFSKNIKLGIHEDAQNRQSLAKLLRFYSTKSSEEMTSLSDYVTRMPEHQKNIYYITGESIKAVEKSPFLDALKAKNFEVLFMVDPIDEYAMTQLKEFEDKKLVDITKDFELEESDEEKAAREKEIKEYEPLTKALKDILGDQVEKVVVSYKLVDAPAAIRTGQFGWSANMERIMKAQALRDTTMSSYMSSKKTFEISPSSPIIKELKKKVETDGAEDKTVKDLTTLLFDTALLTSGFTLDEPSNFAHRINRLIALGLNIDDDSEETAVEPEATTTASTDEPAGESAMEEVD

[7] = Luminescence Cell-Based Dose Retest to Confirm Inhibitors of Cancer Stem Cells. [Related pubchem assays (depositor defined):AID2717, AID2721]; format: functional; conditions: Homo sapiens
[8] = C. albicans growth with fluconazole, confirmation, fluorescence, retest (AID 2467); format: functional, cell-based
cells = format: functional
[9] = Vero E6 cell cytotoxicity, dose response, cytotoxicity control for non-replicating M. tuberculosis project, secondary assay (AID 492998); format: functional, VeroE6; conditions: Vero C1008
[10] = molecular target: T2, Carboxy-terminal domain RNA polymerase II polypeptide A small phosphatase 1 (Homo sapiens, UniProt Q9GZU7); assay: inhibitors of CTDSP1, concentration-response testing, biochemical assay, absorbance-based, actives from ultra-high-throughput screening (AID 540297); format: functional
T2 sequence (Q9GZU7 whole entry): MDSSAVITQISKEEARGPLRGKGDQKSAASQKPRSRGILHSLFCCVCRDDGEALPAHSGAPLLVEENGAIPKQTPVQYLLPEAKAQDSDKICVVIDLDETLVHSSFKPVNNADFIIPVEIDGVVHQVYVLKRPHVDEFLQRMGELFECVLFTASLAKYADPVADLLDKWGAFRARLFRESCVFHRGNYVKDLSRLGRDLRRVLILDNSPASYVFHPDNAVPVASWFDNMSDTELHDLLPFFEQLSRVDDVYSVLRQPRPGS

Genome polyprotein = Genome polyprotein (dengue virus type 2, UniProt P29990); assay: Dengue-2 NS5 methyltransferase inhibitors, primary screen, biochemical, confirmation dose response (AID 588689); format: functional
Chain of Genome polyprotein (P29990 2492-3391 limits assumed): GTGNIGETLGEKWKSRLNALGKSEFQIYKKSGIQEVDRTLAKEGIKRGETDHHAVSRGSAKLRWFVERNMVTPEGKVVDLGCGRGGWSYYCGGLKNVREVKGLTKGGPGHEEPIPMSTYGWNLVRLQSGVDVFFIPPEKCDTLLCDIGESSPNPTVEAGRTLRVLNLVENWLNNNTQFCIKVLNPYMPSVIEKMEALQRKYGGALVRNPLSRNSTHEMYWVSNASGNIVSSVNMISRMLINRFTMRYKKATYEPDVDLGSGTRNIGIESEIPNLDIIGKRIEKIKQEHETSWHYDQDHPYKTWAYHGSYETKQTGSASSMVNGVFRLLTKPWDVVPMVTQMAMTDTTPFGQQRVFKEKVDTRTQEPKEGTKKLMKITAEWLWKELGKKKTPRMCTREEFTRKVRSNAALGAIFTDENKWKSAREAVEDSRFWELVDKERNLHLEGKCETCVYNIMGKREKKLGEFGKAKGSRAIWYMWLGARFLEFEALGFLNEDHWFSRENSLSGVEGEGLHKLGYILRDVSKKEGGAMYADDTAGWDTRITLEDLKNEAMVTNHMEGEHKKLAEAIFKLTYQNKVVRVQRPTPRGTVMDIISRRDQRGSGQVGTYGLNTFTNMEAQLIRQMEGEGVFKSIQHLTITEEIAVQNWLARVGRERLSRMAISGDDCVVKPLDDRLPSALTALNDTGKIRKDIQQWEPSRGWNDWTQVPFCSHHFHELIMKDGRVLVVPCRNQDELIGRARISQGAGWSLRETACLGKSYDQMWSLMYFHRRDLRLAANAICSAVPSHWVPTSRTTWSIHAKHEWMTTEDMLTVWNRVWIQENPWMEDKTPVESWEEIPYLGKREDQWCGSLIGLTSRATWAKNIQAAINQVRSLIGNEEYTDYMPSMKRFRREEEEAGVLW

[11] = intracellular Trypanosoma cruzi inhibitors in host cells – cell-based, plate reader, cherry-pick samples, set 3, dose response (AID 651818); format: functional;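 further: compounds incubated with infected cells for about four days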

CC1(O)CC(c2ccc(Cl)cc2)=NN1C(=O)c1ccc([N+](=O)[O-])cc1 (stereo not drawn)
EC50 [1]: > 180 µM (inactive) | CC50 [2]: > 20 µM (active) | EC50 [3]: > 150 µM (inconclusive) | CC50 [4]: 15.5 µM (active) | CC50 [5]: 24.7 µM (active) | EC50 [6]: 12.5 µM (active) | AC50 [7]: 3.86 µM (active) | EC50 [8]: 0.404 µM (active) | IC50 (cells): 14.2 µM (active) | CC50 [9]: 19.5 µM (active)

O=C(NNC(=O)c1cc2cc3ccccc3nc2s1)c1ccc(F)cc1
IC50 [10]: 4.28 µM (active)

O=[N+]([O-])c1cccc(-c2csc(N/N=C/c3cccc(O)c3)n2)c1
AC50 [7]: 2.8 µM (active) | IC50 [10]: 10.8 µM (active)

O=C(COc1cccc2ccccc12)Nc1cc(Cl)ccc1C(=O)O
IC50 (Genome polyprotein): 40.5 µM (active)

C[C@@H]1CN([C@H](C)CO)C(=O)c2cccc(NC(=O)Nc3ccc(C(F)(F)F)cc3)c2O[C@@H]1CN(C)Cc1ccc(Oc2ccccc2)cc1
AC50 [11]: 7.23 µM (active)

C[C@@H]1CCCCO[C@@H](CN(C)Cc2ccc(C(=O)Nc3ccccc3N)cc2)[C@@H](C)CN([C@H](C)CO)C(=O)c2cc(NS(C)(=O)=O)ccc2O1
AC50 [11]: 4.5 µM (active)

C[C@H](CO)N1C[C@H](C)[C@@H](CN(C)Cc2ccc(C(F)(F)F)cc2)Oc2ccc(NS(=O)(=O)c3ccc(F)cc3)cc2C1=O
AC50 [11]: 3.48 µM (active)

O=C(O)Cc1ccc(NC(=O)c2ccc3c(c2)C(=O)N(Cc2ccco2)C3=O)cc1
IC50 [10]: 3.79 µM (active)
